From patent US20090111759A1, “Synergistic Combination of Glutamate-and Gaba-Gated Chloride Agonist Pesticide and at Least One Vitamin E, Niacin, or Derivatives Thereof” (priority 2006, published 2009)
Where two headings read alike, the source gives them in different places.

Assays:
[1] = tested on: Trichostrongylus colubriformis; assay: Larvae feeding inhibition study (Example 23); details: for LFI-50 T. col.: larvae feeding inhibition 50%; for LFI-50 T. col. / LFI-96 T. col. / LFI-99 T. col.: mixtures: based on concentration of IVM or DOR; for LFI-96 T. col.: larvae feeding inhibition 96%; for LFI-99 T. col.: larvae feeding inhibition 99%
Excerpt: (§1) The calculations done according to Wadley and shown in Table 23 indicate that synergistic action of Ivermectin and tocopheryl acetate and Doramectin and tocopheryl acetate was pre-sent in the larvae feed inhibition study. The synergistic action of Ivermectin and tocepheryl acetate in the H. contortus experiment is of particular interest because the H. contortus iso-late used was Ivermectin resistant.

[2] = tested on: Teladorsagia (Ostertagia) circumcincta; assay: Larvae feeding inhibition study (Example 23); details: for LFI-50 T. cir.: larvae feeding inhibition 50%; for LFI-50 T. cir. / LFI-96 T. cir. / LFI-99 T. cir.: mixtures: based on concentration of IVM or DOR; for LFI-96 T. cir.: larvae feeding inhibition 96%; for LFI-99 T. cir.: larvae feeding inhibition 99%
Excerpt: as §1

Haemonchus contortus = assay: Larvae feeding inhibition study (Example 23); details: for LFI-50 H. con.: larvae feeding inhibition 50%; for LFI-50 H. con. / LFI-96 H. con. / LFI-99 H. con.: Ivermectin resistant isolate, mixtures: based on concentration of IVM or DOR; for LFI-96 H. con.: larvae feeding inhibition 96%; for LFI-99 H. con.: larvae feeding inhibition 99%
Excerpt: as §1

[3] = tested on: Dysdercus cingulatus nymphs; type: in vivo
Protocol: (§2) A range of Ivermectin solutions in acetone was prepared. Similarly, a range of tocopherol solutions was prepared. Mixed solutions of Ivermectin and tocopherol in acetone were prepared as well. Nymphs of Dysdercus cingulatus were treated topically with either an Ivermectin acetone solution (2 μl), a tocopherol acetone solution (2 μl) or mixed solutions (2 μl).
The mortality was recorded after 24 and 48 h. The results were evaluated by the Colby-method.

[4] = tested on: Dysdercus cingulatus nymphs; type: in vivo; remark: listed apart in the source
Protocol: Abamectin, Ivermectin and tocopherol solutions in acetone were prepared. Mixed solutions of either Abamectin or Ivermectin and tocopherol were also prepared. Nymphs of Dysdercus cingulatus were treated topically with Abamectin acetone solution (20,000 ng/nymph), Ivermectin acetone solution (20,000 ng/nymph), a tocopherol acetone solution (20,000 ng/nymph) or a solution containing Abamectin and tocopherol or Ivermectin and tocopherol in the ratio 1:3 (20,000 ng total/nymph). The solutions were applied dorsally on the nymphs.
The Dysdercus cingulatus mortality was followed over time and recorded. Log time-mortality curves were constructed for the Abamectin and Ivermectin solutions and for the mixtures with tocopherol. An LT50 value was calculated for each application.

[5] = tested on: Onchocerca lienalis microfilariae; assay: Microfilariae mobility test (Example 26)
Tetranychus urticae = assay: Spray test of Spinosad and tocopheryl acetate on bean plants (Vicia faba), leaf protection (Example 13); type: in vivo; details: single active, leaf protection 7 days after mites placed, average of four evaluations
Excerpt: Using the alternative method for determining synergism the effect of each mixture of Spinosad and tocopheryl acetate is compared with the effect of the same rate of each of the active ingredients used alone.

houseflies [6] = assay: Dorsal application of Abamectin and Vitamin E derivatives, mortality (Example 18); type: in vivo, housefly; details: combination of Abamectin and the Vitamin E derivative; 2 μl dorsally; Colby
Protocol: (§3) Various solutions of Vitamin E derivatives, Abamectin and combinations of Vitamin E derivatives and Abamectin were applied dorsally on houseflies. On each housefly 2 μl test solution was applied. The mortality of the treatments was recorded. The mortality results were analysed according to Colby. The synergistic activity of Abamectin and various Vitamin E derivatives on houseflies is illustrated in table 18.

[7] = tested on: nymphs of Dysdercus cingulatus; assay: Dorsal application of Abamectin and Vitamin E derivatives, mortality (Example 19); type: in vivo; details: combination of Abamectin and the Vitamin E derivative; 2 μl dorsally; Colby
Protocol: as §3, with “nymphs of Dysdercus cingulatus.” for “houseflies.”, “Dysdercus cingulatus” for “housefly”, “Dysdercus cingulatus” for “houseflies”, “19.” for “18.”

houseflies [8] = assay: Dorsal application of Abamectin and nicotinic acid derivatives, mortality (Example 21); type: in vivo, housefly; details: combination of Abamectin and the nicotinic acid derivative; 2 μl dorsally; Colby
Protocol: Various solutions of nicotinic acid derivatives, Abamectin and combinations of nicotinic acid derivatives and Abamectin were applied dorsally on houseflies. On each housefly 2 μl test solution was applied. The mortality of the treatments was recorded. The mortality results were analysed according to Colby.

Spodoptera exiqua larvae = assay: Topical application of Emamectin-benzoate/tocopherol acetone solutions, LD50 (Example 9); type: in vivo; details: topical 1 μl acetone solution; mortality recorded 48 h after applying
Protocol: A range of Emamectin-benzoate and tocopherol, all-rac alpha, solutions with varying concentrations of each compound in acetone was prepared. Mixed solutions of Emamectin-benzoate and tocopherol, all-rac alpha, were also prepared. Larvae of Spodoptera exiqua were treated topically with either an Emamectin-benzoate acetone solution (1 μl), a tocopherol acetone solution (1 μl) or a solution containing both of the two compounds in the ratios 1:1 and 1:3 (1 μl). Log dose-mortality curves were constructed for the Emamectin-benzoate solutions, the tocopherol solutions and the mixtures. […] A comparison was made between the actual observed LD50 and the expected value, based on the Wadley method as described previously.

[9] = tested on: Dysdercus cingulatus nymphs; type: in vivo; details: 2000 ng applied on each nymph; 24 h after applying
Protocol: A range of Abamectin solutions in acetone was prepared. Similarly, a range of tocopherol, all-rac alpha, solutions in acetone was prepared. Abamectin solution (2 μl), tocopherol solution (2 μl) or both were applied topically on nymphs of Dysdercus cingulatus. Abamectin was applied dorsally while tocopherol was applied ventrally. […] The mortality of the nymphs was recorded 24 h after applying the solutions.

[10] = tested on: Dysdercus cingulatus nymphs; assay: Topical application of Abamectin/tocopherol acetone solutions, LD50 (Example 5); type: in vivo; details: sum of Abamectin and tocopherol; mortality recorded 48 h after applying
Protocol: as §2, with “of Abamectin” for “of Ivermectin”, “of tocopherol, all-rac alpha,” for “of tocopherol”, “an Abamectin” for “an Ivermectin”, “μl). The Dysdercus cingulatus mortality was recorded 48 h after applying the products.” for “μl).”
Log dose-mortality curves were constructed for the Abamectin and the tocopherol treatments. LD50 values based on the sum of Abamectin and tocopherol contents (ng active ingredient(s) per nymph) were calculated.
From the observed LD50 values for Abamectin and tocopherol expected LD50 values for the mixtures were calculated according to Wadley's formula.

[11] = tested on: adult sea lice (Lepeophtheirus salmonis); details: tested alone at various concentrations
Protocol: Eur. 5th Ed was studied on adult sea lice (Lepeophtheirus salmonis), a fish parasite, in seawater in Petri dishes. Emamectin benzoate and tocopheryl aceate were tested at various concentrations. In addition, mixtures of Emamectin benzoate and tocopheryl aceate, ratio 1:10 based on weight, were tested as well.

[12] = tested on: cat fleas (Ctenocephalides felis felis) larvae; assay: In vitro contact test on flea larvae (Example 25)
[13] = tested on: larvae of Lucilia cuprina (sheep blowfly)
Excerpt: A mixture of Spinosad and tocopheryl acetate, all-rac alpha, Ph.

[14] = tested on: cat fleas (Ctenocephalides felis felis) larvae; assay: In vitro larvae test based on systemic activity (Example 25)
[15] = tested on: cat fleas (Ctenocephalides felis felis) adult; assay: In vitro contact test on adult fleas (Example 25)
[16] = 30 ng applied per nymph, after 24 h
[17] = 30 ng applied per nymph, after 48 h
[18] = 100 ng applied per nymph, after 24 h
[19] = 100 ng applied per nymph, after 48 h
[20] = 300 ng applied per nymph, after 24 h
[21] = 300 ng applied per nymph, after 48 h
[22] = tested alone, in the tested dose range
[23] = inactivation of the fleas, mixture: based on the concentration of Selamectin

Ivermectin
LFI-50 T. col. [1]: 2.01 ppb
LFI-96 T. col. [1]: 8.63 ppb
LFI-99 T. col. [1]: 10.81 ppb
LFI-50 T. cir. [2]: 6.37 ppb
LFI-96 T. cir. [2]: 12.59 ppb
LFI-99 T. cir. [2]: 17.35 ppb
LFI-50 H. con. (Haemonchus contortus): 6.10 ppb
LFI-96 H. con. (Haemonchus contortus): 32.12 ppb
LFI-99 H. con. (Haemonchus contortus): 40.68 ppb
Mortality (%) for each ingredient [3, 16]: 8%
Mortality (%) for each ingredient [3, 17]: 27%
Mortality (%) for each ingredient [3, 18]: 33%
Mortality (%) for each ingredient [3, 19]: 65%
Mortality (%) for each ingredient [3, 20]: 63%
Mortality (%) for each ingredient [3, 21]: 86%
LT50 ([4]; in total 20,000 ng/nymph applied dorsally, two replicates of ten nymphs): 9.1 h
EC50 ([5]; mobility of the microfilariae, read-out: EC50 value for Ivermectin): 5.8 µM

Spinosad
% protection (Tetranychus urticae; 100 g/ha): 5%
% protection (Tetranychus urticae; 300 g/ha): 5%

Cc1c(C)c2c(c(C)c1OC(=O)c1cccnc1)CC[C@@](C)(CCC[C@H](C)CCC[C@H](C)CCCC(C)C)O2 [(+)alpha-tocopheryl nicotinate]
R (obs mortality/exp mortality) (houseflies [6]): 3.0
R (obs mortality/exp mortality) [7]: 1.2
R (obs mortality/exp mortality) (houseflies [8]): 3.0

Cc1c(C)c2c(c(C)c1O)CCC(C)(CCCC(C)CCCC(C)CCCC(C)C)O2 (racemic) [tocopherol, tocopherol, all-rac alpha]
LD50obs (Spodoptera exiqua larvae): >20000 ng AI(s)/larvae
% Mortality for each ingredient [9]: 0%
Mortality (%) for each ingredient [3, 16]: 0%
Mortality (%) for each ingredient [3, 17]: 0%
Mortality (%) for each ingredient [3, 18]: 0%
Mortality (%) for each ingredient [3, 19]: 0%
Mortality (%) for each ingredient [3, 20]: 0%
Mortality (%) for each ingredient [3, 21]: 0%
LD50obs [10]: >20,000 ng tocopherol ng AI(s) per nymph
Mortality during the test period ([4]; 20,000 ng tocopherol per nymph, 24 h test period): did not die

CC(=O)Oc1c(C)c(C)c2c(c1C)CCC(C)(CCC[C@H](C)CCC[C@H](C)CCCC(C)C)O2 (mixture of isomers) [tocopheryl acetate]
feeding inhibition activity [1, 22]: did not have any feeding inhibition activity
feeding inhibition activity [2, 22]: did not have any feeding inhibition activity
feeding inhibition activity (Haemonchus contortus; [22]): did not have any feeding inhibition activity
activity in its own right [11]: did not have any activity
activity in its own right ([12]; tested alone): did not have any activity
activity on the larvae [13]: no activity
activity in its own right ([14]; tested alone): did not have any activity
effect on mobility of the microfilaria ([5]; alone, in the concentration range tested): did not affect the mobility
% protection (Tetranychus urticae; 100 g/ha): 15%
% protection (Tetranychus urticae; 300 g/ha): 8.8%
activity in its own right ([15]; tested alone): did not have any activity

O=C(O)c1cccnc1 [Nicotinic acid]
R (obs mortality/exp mortality) (houseflies [8]): 1.4

Cc1c(C)c2c(c(C)c1O)CC[C@@](C)(CCC[C@H](C)CCC[C@H](C)CCCC(C)C)O2 [(+)alpha-tocopherol]
R (obs mortality/exp mortality) (houseflies [6]): 2.0
R (obs mortality/exp mortality) [7]: 1.1

O=C(O)c1ccncc1 [Isonicotinic acid]
R (obs mortality/exp mortality) (houseflies [8]): >2

CO[C@H]1C[C@H](O[C@H]2[C@H](C)O[C@@H](O[C@@H]3/C(C)=C/C[C@@H]4C[C@@H](C[C@]5(C=C[C@H](C)[C@@H](C6CCCCC6)O5)O4)OC(=O)[C@@H]4C=C(C)[C@@H](O)[C@H]5OC/C(=C\C=C\[C@@H]3C)[C@]54O)C[C@@H]2OC)O[C@@H](C)[C@@H]1O [DOR, Doramectin]
LFI-50 T. col. [1]: 2.57 ppb
LFI-96 T. col. [1]: 8.04 ppb
LFI-99 T. col. [1]: 12.22 ppb
LFI-50 T. cir. [2]: 6.12 ppb
LFI-96 T. cir. [2]: 13.14 ppb
LFI-99 T. cir. [2]: 18.52 ppb
LFI-50 H. con. (Haemonchus contortus): 2.63 ppb
LFI-96 H. con. (Haemonchus contortus): 10.37 ppb
LFI-99 H. con. (Haemonchus contortus): 16.30 ppb

Cc1c(C)c2c(c(C)c1O)CCC(C)(C(=O)O)O2 (stereo not shown) [Trolox, 6-hydroxy-2,5,7,8-tetramethylchroman-2-carboxylic acid]
R (obs mortality/exp mortality) (houseflies [6]): 1.3

Cc1cc(O)cc2c1O[C@](C)(CCC[C@H](C)CCC[C@H](C)CCCC(C)C)CC2 [(+)delta-tocopherol]
R (obs mortality/exp mortality) [7]: 1.6

COC(=O)c1cccnc1 [Methyl nicotinate]
R (obs mortality/exp mortality) (houseflies [8]): 3.0

CCOC(=O)c1cccnc1 [Ethyl nicotinate]
R (obs mortality/exp mortality) (houseflies [8]): 1.4

Cc1c(C)c2c(c(C)c1OC(=O)CCC(=O)O)CC[C@@](C)(CCC[C@H](C)CCC[C@H](C)CCCC(C)C)O2 [(+)alpha-tocopheryl succinate]
R (obs mortality/exp mortality) [7]: 1.3

CO[C@H]1C[C@H](O[C@@H]2/C(C)=C/C[C@@H]3C[C@@H](C[C@]4(CC[C@H](C)[C@@H](C5CCCCC5)O4)O3)OC(=O)[C@@H]3C=C(C)/C(=N/O)[C@H]4OC/C(=C\C=C\[C@@H]2C)[C@]43O)O[C@@H](C)[C@@H]1O [Selamectin]
ED50 Larvae contact [12, 23]: 31 ppm
ED50 Larvae systemic [14, 23]: 1.5 ppm
ED50 Adult contact [15, 23]: 24330 ppm

CC(=O)Oc1c(C)c(C)c2c(c1C)CC[C@@](C)(CCC[C@H](C)CCC[C@H](C)CCCC(C)C)O2 [(+)alpha-tocopheryl acetate]
R (obs mortality/exp mortality) (houseflies [6]): 1.9
R (obs mortality/exp mortality) [7]: 1.2

Emamectin-benzoate
LD50obs (Spodoptera exiqua larvae): 4.30 ng AI(s)/larvae
